The target in one series is T1, human A3 receptors (Homo sapiens, UniProt P0DMS8).
T1 construct: expressed in transfected cells; host or cells: CHO cells (membrane preparations)
T1 sequence (P0DMS8 1-318): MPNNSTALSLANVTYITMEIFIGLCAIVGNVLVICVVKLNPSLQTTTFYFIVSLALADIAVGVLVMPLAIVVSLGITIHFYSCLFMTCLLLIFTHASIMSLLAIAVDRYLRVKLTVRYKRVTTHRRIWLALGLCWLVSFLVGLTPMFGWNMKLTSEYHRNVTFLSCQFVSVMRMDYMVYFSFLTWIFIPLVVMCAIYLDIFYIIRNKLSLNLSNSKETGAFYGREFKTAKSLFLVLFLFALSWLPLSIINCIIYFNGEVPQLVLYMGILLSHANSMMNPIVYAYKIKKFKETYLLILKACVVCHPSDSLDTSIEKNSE
Description: A3 receptor radioligand binding, displacement of [125I]-AB-MECA. Conditions: for IC50: displacement of [125I]-AB-MECA (0.3 nM), human A3 receptors expressed in CHO cells, membranes, 60 min room temperature; for % Displacement of [125I]-AB-MECA: human A3 receptors in CHO cells. A general note: Loss of bound radioactivity is the signal in a displacement assay; it reports binding, not function.

The target in a further series is T2, A1 receptor (Cavia porcellus, UniProt P47745).
T2 construct: from tissue; host or cells: guinea-pig isolated paced left atria
T2 sequence (P47745 1-326): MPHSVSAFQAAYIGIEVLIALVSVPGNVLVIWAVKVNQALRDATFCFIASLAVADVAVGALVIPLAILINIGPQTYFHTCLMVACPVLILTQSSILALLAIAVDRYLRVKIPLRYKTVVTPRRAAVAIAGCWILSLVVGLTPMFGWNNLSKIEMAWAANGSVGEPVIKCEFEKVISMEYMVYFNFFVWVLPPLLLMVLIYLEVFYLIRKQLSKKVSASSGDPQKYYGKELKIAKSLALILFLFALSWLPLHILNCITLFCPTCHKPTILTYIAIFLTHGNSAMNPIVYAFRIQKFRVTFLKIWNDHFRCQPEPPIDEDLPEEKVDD
Description: A1 receptor functional activity, negative inotropic response of isolated paced left atria. Also on record: species or system guinea-pig. Conditions: for IC25, negative inotropic action at A1 receptors of guinea-pig atria: concentration for 25% of the maximum response to NECA, cumulative concentration-response curves.

A short description of series [1]: Partition coefficient, propylene glycol dipelargonate (PGDP)/water model. In kind it is physicochemical. Conditions: 21.2 °C; for Log P(s): partition solvent propylene glycol dipelargonate (PGDP)/water, neutral species. An excerpt:
The partition measurements were based on a long chain ester (propylene glycol dipelargonate-PGDP)/water model.

The nature of series [2]: pKa determination with co-solvent titrations. The class given is physicochemical. Conditions: read-out: pKa (s).
For series [3], the system named is guinea-pig isolated left atria. Description: Myocardial contractile dysfunction (stunning) after simulated ischaemia of isolated atria. The procedure: The following experiment was carried out to evaluate the efficacy of compound 6 in protecting against myocardial contractile dysfunction (stunning) after simulated ischaemia of isolated atria.
Guinea-pig isolated left atria were set up in tissue baths containing Krebs-bicarbonate solution gassed with 5% CO2 in oxygen at 37° C. and electrically paced at 2 Hz with pulses of threshold voltage +50% and 5 ms pulse width. Developed tension was recorded. After equilibrium, they were exposed to 30 min of simulated ischaemia by gassing with 5% CO2 in nitrogen and removing the glucose substrate which was replaced with choline chloride (7 mM) to maintain isotonicity. Pacing was continued throughout. After 30 min, the tissues were reoxygenated and glucose was returned. […] This partial recovery was the index of myocardial stunning. […] This timing was to simulate administration at the time of reperfusion induced by thrombolyic therapy following myocardial infarction.

For the next series, the system named is A2 receptor. Description: A2 receptor functional activity, relaxation of isolated trachea pre-contracted with carbachol. More on the design: species or system guinea-pig. Conditions: for IC25, relaxation at A2 receptors of guinea-pig trachea: concentration for 25% of the maximum response to NECA, trachea precontracted with carbachol (100 nM).
For series [4] the following is noted: e.g. from about 70 mm Hg to about 90 mm Hg; cited from earlier work.
For series [5] the following is noted: empiric evidence; cited from earlier work.

A word on the IC50: it is the concentration needed to halve the response being measured. The melting point is the temperature, or range, at which the solid turns liquid. For orientation: Log D means lipophilicity at a set pH, counting ionised and neutral species. A higher Log D goes with a more lipophilic compound. The pKa is the pH at which an ionisable group is half protonated.

“And” between values parts separate entries of the source, which are not always exact repeats. Equal entries are not always repeated.

In turn, `CNC(=O)[C@H]1O[C@@H](n2cnc3c(NCc4cc(C)ccn4)ncnc32)C(O)C1O` (stereo partly shown) [Compound 1, N^6-(4-methyl-2-picolyl)-adenosine-5′-N-methyluronamide] came in with an IC50 at human A3 receptors of 2.2 nM.

For the compound `CNC(=O)[C@H]1O[C@@H](n2cnc3c(NCc4ccccn4)ncnc32)C(O)C1O` (stereo partly shown) [Compound 3, N^6-(2-picolyl)adenosine-5′-N-methyluronamide], the melting point was in the range of 84 to 86 °C. The IC50 at human A3 receptors amounted to 6 nM.

Consider `CNC(=O)[C@H]1O[C@@H](n2cnc3c(NCc4cccc(C(C)=O)n4)ncnc32)C(O)C1O` (stereo partly shown) [Compound 4, N^6-(6-acetyl-2-picolyl)adenosine-5′-N-methyluronamide], for which the melting point is 226 to 228 °C. At human A3 receptors, this compound yielded an IC50 of 0.4 nM.

Regarding `CNC(=O)[C@H]1O[C@@H](n2cnc3c(NCc4cc(I)ccn4)nc(C#Cc4ccccc4)nc32)[C@H](O)[C@@H]1O` [Compound 5, N^6-(4-iodo-2-picolyl)-2-(2-phenyl-1-ethynyl)-adenosine-5′-N-methyluronamide], the half-maximal inhibitory concentration (IC50) on human A3 receptors fell in the range of 31 to 45 nM.

Regarding `CNC(=O)[C@H]1O[C@@H](n2cnc3c(NCc4cc(I)c5oc(N(C)C)nc5c4)ncnc32)C(O)C1O` (stereo partly shown) [Compound 6, N^6-[(2-dimethylamino-7-iodo-1,3-benzoxazol-5-yl)-methyl]-adenosine-5′-N-methyluronamide], on A1 receptor, the “IC25, negative inotropic action at A1 receptors of guinea-pig atria” value worked out at 1000 nM. Besides, the “Selectivity for A3 receptors (radioligand binding) against A1 receptors (negative inotropy)” value on A1 receptor (ratio of atrial functional value to A3 binding IC50) is reported as 6.25×10^6. The IC50 at A1 receptor (read-out: IC50, negative inotropic action at A1 receptors of guinea-pig atria) stood at 10000 nM; on human A3 receptors it was 0.0016 nM. At human A3 receptors, the “Potency for binding to the human A3 receptor (in words)” value is given as “picomolar potency”. For the same compound, the “% Displacement of [125I]-AB-MECA” value came to 94% at human A3 receptors (Concentration (Log M) −7); 79% on human A3 receptors (Concentration (Log M) −9); 73% at human A3 receptors (Concentration (Log M) −10); 68% on human A3 receptors (Concentration (Log M) −11); 47% on human A3 receptors (Concentration (Log M) −12). Also, the “A3 binding potency compared with IB-MECA” value at human A3 receptors (comparison of IC50 values of Table 1) is given as “approximately two orders of magnitude more potent”. Besides, the “Log D” value in [1] (partition solvent PGDP/water) turned out to be 1.483. Besides, the “Log P(s)” value is on record as 1.484 in [1] and 1.48±0.03 in series [1] (listed as compound 10). The pKa in series [2] turned out to be 3.66 ± 0.03. Besides, the “Maximum developed contractile tension (%), Post-ischaemic, Mean” value is on record as 84.0% in series [3] (Compound 6 5 × 10^−9 M at reoxygenation, % of pre-ischaemic value, n=3) and 84.0±18.0% in series [3] (Compound 6 5 × 10^−9 M at reoxygenation, % of pre-ischaemic value, n=3, listed as compound 6). The “Maximum developed contractile tension, Post-ischaemic” value in [3] (Compound 6 5 × 10^−9 M introduced at reoxygenation after 30 min simulated ischaemia, single experiments) was 0.72 g and 0.42 g and 0.40 g. In addition, the “IC25, relaxation at A2 receptors of guinea-pig trachea” value in the series on A2 receptor is 9070 nM. In addition, in the series on A2 receptor (ratio of tracheal functional value to A3 binding IC50), the “Selectivity for A3 receptors (radioligand binding) against A2 receptors (tracheal relaxation)” value was 5.6×10^6.

The compound `CNC(=O)[C@H]1O[C@@H](n2cnc3c(NCc4ccc5oc(N(C)C)nc5c4)ncnc32)C(O)C1O` (stereo partly shown) [Compound 7, N^6-[(2-Dimethylamino-1,3-benzoxazol-5-yl)-methyl]-adenosine-5′-N-methyluronamide] yielded a melting point of 239 to 241 °C. The compound further returned an IC50 at human A3 receptors of 450 nM. Moreover, in series [2], the pKa came out at 3.61.

Regarding `CNC(=O)[C@H]1O[C@@H](n2cnc3c(NCc4cc(I)c5oc(N(C)C)nc5c4)nc(C#Cc4ccccc4)nc32)[C@H](O)[C@@H]1O` [Compound 8, N^6-[(2-dimethylamino-7-iodo-1,3-benzoxazol-5-yl)-methyl]-2-(2-phenyl-1-ethynyl)-adenosine-5′-N-methyluronamide], the IC50 on human A3 receptors lay in the range of 21 to 80 nM.

For `CNC(=O)[C@H]1O[C@@H](n2cnc3c(NCc4cccc(I)c4)ncnc32)[C@H](O)[C@@H]1O` [IB-MECA], in [4], the “Increase in basal or systemic blood pressure” value is on record as 10-30%. In series [3] (IB-MECA 3 × 10^−7 M at reoxygenation, % of pre-ischaemic value, 6 experiments), the “Maximum developed contractile tension (%), Post-ischaemic, Mean” value was 66.5±6.5% and 66.5%. In addition, the “Maximum developed contractile tension (%), Post-ischaemic” value in series [3] (IB-MECA 3 × 10^−7 M at reoxygenation, % of pre-ischaemic value, single experiments) was 83.3% and 45.5% and 60% and 63% and 87.5%.

On to `CCNC(=O)[C@H]1O[C@@H](n2cnc3c(N)ncnc32)[C@H](O)[C@@H]1O` [NECA, N-ethylcarboxamidoadenosine, reference compound], for which, on A1 receptor, the “IC25, negative inotropic action at A1 receptors of guinea-pig atria” value amounted to 52 nM. Further, the “IC25, relaxation at A2 receptors of guinea-pig trachea” value in the series on A2 receptor was found to be 940 nM.

Consider `CC(C)NCC(O)COc1cccc2ccccc12` (stereo not shown) [propranolol], for which the “Effective partition after allowing for protonation, log10 PGDP/H2O scale” value in [5] is reported as ~0.8.

“N^6-(4-iodo-2-picolyl)-adenosine-5′-N-methyluronamide [Compound 2]” registered an IC50 on human A3 receptors of 0.45 nM.

Source of the values: patent publication US7414036B2, “Compounds useful as A3 adenosine receptor agonists” (Muscagen Limited, priority 2002, dated 2008).
